# Measurements from patent US11324794B2, “Composition for preventing, improving, or treating decrease in intestinal function, comprising bamboo shoot hydrolyzate or fermented bamboo shoot as active ingredient” (OZLDNF CO., LTD., priority 2017, dated 2022).
# Columns and labels:
# Sprague Dawley (SD) rat [1] = test: Digestive tract migration rate (activated charcoal); type: in vivo; details: oral, 7th day, 30 minutes after charcoal
# Text: (§1) Laboratory […] under the following conditions were used. • Genealogy and Species: Sprague Dawley (SD) rat • Source: Samtaco Co., Ltd. • Number of purchased animals and gender: Male • Age (week) of purchased animals and weight range: 6 weeks, 190 to 220 • Number of animals (male) at the time of administration: 49 • Age (week) of animals and weight range at the time of administration: 7 weeks, 210 to 240 g.
# (§2) After one week of acclimation, the test substance, that is, ioperamide as a conventional constipation inductive material, bisacodyl as a conventional constipation therapeutic agent, the enzyme-degraded products in Examples 1 and 2 (fermented for 24 hours) and the fermented products in Examples 3 and 4, respectively, were repeatedly administered in the stomach once a day for a total of 7 days by means of a syringe for oral administration (Sonde). […]
# After fasting a laboratory animal for 15 hours on the 7th day of constipation induction, a 0.5 ml suspension including 10% Arabic gum (Sigma, USA) and 5% activated charcoal (Sigma, USA) was orally administered to the animal. 30 minutes later, the animal was sacrificed, the gastrointestinal tract was removed, and a migration rate was calculated by dividing a length wherein green colored feces are excreted among the intestinal tract length between the duodenum and the rectum, with passage of time. […]
# Sprague Dawley (SD) rat [2] = test: Measurement of water content of feces; type: in vivo; details: Bis group: loperamide 4 mg/kg + bisacodyl 4 mg/kg, oral; comparison group 29.98±1.89%
# Text: as §1
# (§3) After one week of acclimation, the test substance, that is, ioperamide as a conventional constipation inductive material, bisacodyl as a conventional constipation therapeutic agent, the enzyme-degraded products in Examples 1 and 2 (fermented for 24 hours) and the fermented products in Examples 3 and 4, respectively, were repeatedly administered in the stomach once a day for a total of 7 days by means of a syringe for oral administration (Sonde). Except for the control group (Con), all test groups were subjected to administration of loperamide (4 mg/kg) in order to induce constipation.
# The feces were sampled daily and the number and weight of the feces were measured. Further, the sampled feces were dried in a drier at 70° C. for 24 hours. A percentage of water content was calculated by subtracting the weight after drying from the weight before drying to estimate the water content and converting the estimated value as the percentage to a total weight of the feces.
# Sprague Dawley (SD) rat [3] = test: Counting number of intestinal stools remaining in the colon tract; type: in vivo; details: oral, 8th day
# Text: as §1, §3
# The number of intestinal stools was counted by scarifying a laboratory rat on the 8th day after administration of loperamide and observing the number of feces remaining in the colon tract.
# On the last day of the experiment, all laboratory animals were sacrificed and the number of feces remaining in the rectal region was measured.
# Sprague Dawley (SD) rat [4] = test: Measurement of number of feces and feces weight change in loperamide-induced constipation; type: in vivo; details: oral
# Text: as §1, §3
# The feces were sampled daily and the number and weight of the feces were measured. Further, the sampled feces were dried in a drier at 70° C. for 24 hours.
# [5] = Measurement of body weight, dietary intake and amount of drinking water; type: in vivo, Sprague Dawley (SD) rat; details: Lop group: loperamide 4 mg/kg alone, oral
# Text: as §1, §2
# The body weight was measured twice a week on the day before the experiment when group separation was conducted, and twice a week on the day after administration, respectively. The experimental dietary intake was measured by feeding 100 g of test diet at a predetermined time and, after 24 hours, the remaining amount was measured to determine the dietary intake. The drinking water was fed by 250 ml at a predetermined time and the remaining water was measured on the next day to determine a total amount of the water intake. […]
# [6] = Bis group: loperamide 4 mg/kg + bisacodyl 4 mg/kg
Structure (SMILES),Digestive tract migration rate (Sprague Dawley (SD) rat [1]; [6]) [%],Water content of the feces (Sprague Dawley (SD) rat [2]) [%],Number of feces remaining in the intestinal tract (Sprague Dawley (SD) rat [3]; [6]),Weight of feces (Sprague Dawley (SD) rat [4]; [6]) [g],"Digestive tract migration rate (Sprague Dawley (SD) rat [1]; Lop group: loperamide 4 mg/kg alone, Con group 68.63±2.72%) [%]","Number of feces remaining in the intestinal tract (Sprague Dawley (SD) rat [3]; Lop group: loperamide 4 mg/kg alone, Con group 1.86±0.55)","Number of feces (Sprague Dawley (SD) rat [4]; Lop group: loperamide 4 mg/kg alone, 7th day after induction of constipation, Con group 55.14±2.06)","Weight of feces (Sprague Dawley (SD) rat [4]; Lop group: loperamide 4 mg/kg alone, Con group 7.52±0.30 g) [g]",Body weight change (g) (B) − (A) ([5]; 7 days),Body weight (g) After test (B) ([5]; once a day for 7 days) [g]
CC(=O)Oc1ccc(C(c2ccc(OC(C)=O)cc2)c2ccccn2)cc1 [Bisacodyl],65.02±2.86,44.02±1.34,3.62±0.86,6.82 ± 0.35,–,–,–,–,–,–
CN(C)C(=O)C(CCN1CCC(O)(c2ccc(Cl)cc2)CC1)(c1ccccc1)c1ccccc1 [Loperamide],–,–,–,–,42.10±3.49,5.66±0.63,44.40±2.54,5.02 ± 0.36,73.45 ± 5.48,278.58 ± 6.82
